Test results as given in US8343536B2, “Biofilm-inhibiting medical products” (Cook Biotech Incorporated, priority 2007, dated 2013).

Key:
mice = assay: Mouse subcutaneous implant method, in vivo angiogenesis and tolerability of BisEDT coated SIS (Example 7); details: 10 or 100 μg/cm^2 on SIS, 3 weeks
Experimental: The Example was performed to compare the in vivo angiogenic response to SIS compared to 2 levels of BisEDT coated SIS. The model used to detect in vivo angiogenesis was the mouse subcutaneous implant method as generally described by Heeschen et al., Nat. Med. […]; 7:833-9.
BisEDT was obtained from Microbion, Inc. as previously described. All SIS based grafts were made from 4-layer lyophilized sheets as described in the previous Examples. Sample groups consisted of this material coated with 10 μg/cm^2 BisEDT or 100 μg/cm^2 BisEDT. Each material was cut into ten 15 mm discs. Nylon filters with 0.22 μm pores were sewn on to the top and bottom of each disc. Low temperature ethylene oxide sterilization was used for each sample.
Samples were implanted subcutaneously into the dorsal flanks of mice. After anesthesia using Ketamine (87 mg/kg) and Xylazine (13 mg/kg), a small incision was made on the posterior neck of the mouse and a dorsal subcutaneous cavity was created using blunt dissection with hemostats. This was followed by sample placement and closure of the incision with 4 interrupted stitches of 5-0 suture. Six mice per group underwent disc implantation. The implant remained in the mice for a period of 3 weeks followed by probing for capillary formation.
Mice were sacrificed using a double dose of anesthesia to ensure intact flow in vasculature. While the heart was still beating, the chest cavity was exposed, vena cava severed, and 10 ml of heparized saline injected into the left ventricle using a 23 ga butterfly infusion set to exsanguinate the mouse. After transferring syringes (while maintaining infusion needle in left ventricle), 4 ml of a fluorescent microsphere (yellow-green, 0.1 μm diameter, Molecular Probes, F-8803) suspension (1:20 dilution of stock suspension) was injected through the left ventricle resulting in perfusion of the entire vasculature. Care was taken to ensure no bubbles were introduced during the injections, as bubbles will cause micro-emboli obstructing consistent perfusion. […]

S. aureus (ATCC #25983) [1] = assay: Zone-of-inhibition after various rehydration times of coated SIS discs (Example 3); format: cell-based
Experimental: (§1) BisEDT (Molar ratio 1:1.5) and BisBAL (1:1.5) (50 mg each) were obtained from Microbion, Inc. Small intestinal submucosa (SIS) was obtained and processed into 4-layer lyophilized sheets as described in Example 1. The sheets were subsequently cut into 15 mm discs (˜1.76 cm^2) using a disc punch. Bismuth thiols were resuspended in dimethyl sulfoxide (DMSO) and diluted to appropriate concentrations for coating. Discs were coated with the bismuth thiol solutions at a final concentration of 0.35 μg/μl using 50 μl of the solution per disc for a final concentration of 10 μg/cm^2. The discs were subsequently placed in a lyophilizer overnight to remove the DMSO solvent. S. aureus (ATCC #25983) was used as the bacteria for this experiment. Bacteria was grown in Tryptic Soy Broth for 16-24 hours before placing a lawn on Tryptic Soy Agar in 100 mm Petri dishes.
Thirty six samples were tested in total (2 BT*n=3→6*6 rehydration times→36). A lawn of S. aureus was swabbed onto the Tryptic Soy Agar. For the 0 rehydration time point, the bismuth thiol coated disc was placed approximately in the center of the plate and rehydrated with ˜50 μl of sterile saline. Other rehydration times were varied at 5, 10, 20, 30, or 60 minutes. For this, the samples were placed in sterile saline and a timer set for each time. At the appropriate time, samples were removed from the saline and placed approximately in the center of the plate. Plates were incubated inverted for 24 hours at which time pictures were taken with a digital camera. Zones-of-inhibition were compared visually between groups.

S. aureus (ATCC #25983) [2] = assay: Zone-of-inhibition after ethylene oxide or E-beam sterilization of coated SIS discs (Example 4); format: cell-based
Experimental: as §1, with “was” for “(Molar ratio 1:1.5) and BisBAL (1:1.5) (50 mg each) were”, “Inc. as previously described.” for “Inc.”, “BisEDT was” for “Bismuth thiols were”, “BisEDT solution” for “bismuth thiol solutions”, “solvent. For the ethylene oxide sterilization compatibility experiment, 6 discs were coated with 10 μg/cm^2 BisEDT and packaged into 2 separate tyvek pouches with 3 discs per pouch. One pouch was placed in a drawer until use and left non-sterile and the other pouch was sterilized with low temperature ethylene oxide sterilization. For the E-beam sterilization, essentially the same process was performed except the discs were packaged in foil pouches and the samples were subjected to E-beam sterilization with a dose of ˜25 kGy.” for “solvent.”, “dishes. […]” for “dishes.”

bismuth-1,2-ethanedithiol [BisEDT]
Angiogenic potential of coated SIS (mice): neither level of BisEDT (10 or 100 μg/cm^2) coated onto the SIS affected the angiogenic potential
Local toxicity at explant (mice): no visual evidence of local toxicity at explant
Systemic toxicity (mice): no observed symptoms of systemic toxicity
Effect of rehydration time on zone-of-inhibition, visual comparison (S. aureus (ATCC #25983) [1]; 10 μg/cm^2, rehydration 0-60 minutes in sterile saline): no visual differences between the rehydration time points
Zone-of-inhibition, visual (S. aureus (ATCC #25983) [1]; 10 μg/cm^2 on SIS disc, rehydration 0, 5, 10, 20, 30 or 60 minutes): significant effectiveness in creating a zone-of-inhibition
Zone-of-inhibition, visual (S. aureus (ATCC #25983) [2]; S. aureus, 10 μg/cm^2 on SIS disc, sterilized (ethylene oxide or E-beam ~25 kGy) and non-sterile): effectiveness at creating a zone-of-inhibition
Compatibility with sterilization technique (S. aureus (ATCC #25983) [2]; ethylene oxide vs E-beam (~25 kGy), zone-of-inhibition against S. aureus compared visually): E-beam sterilization exhibited greater compatibility with BisEDT than ethylene oxide sterilization
